Data as given in patent publication US20240325544A1, “CATIONIC LIPID FOR COVALENT MODIFICATION OF PEPTIDES” (PharmalN Corporation, priority 2023, published 2024).
Bridge positions count the residues as written; N and C are the ends. Square brackets hold non-standard residues; d marks the D form. Peptide text beside a SMILES is read from it. * marks the point of attachment. Palmitoyl = CCCCCCCCCCCCCCCC(=O)*; Dap = NC[C@H](N)C(=O)O; AEEA = NCCOCCOCC(=O)O

Key:
[1] = tested on: E0771 breast cancer cells; experiment: Orthotopic E0771 breast cancer model, monotherapy or with anti-PD1 Ab (FIG. 9); format: in vivo, mice
Description: FIG. 9. […] Error bars represent standard error of the mean. Tumor growth kinetics of 6-week-old female C57BL/6J mice (n=7-8 per group) that were orthotopically inoculated with E0771 breast cancer cells (250,000 cells/mouse) in the mammary gland. Starting from Day 4 post-inoculation, anti-PD1 Ab (aPD1) was administered intraperitoneally at 5 mg/kg twice a week for 2 cycles; SEQ ID NO: 31 was administered subcutaneously at a bolus dose of 0.3 mg/kg once daily for 5 days (5 days on, 2 days off) for 3 cycles; or a combination of aPD1 (5 mg/kg IP twice a week; 2 cycles) and SEQ ID NO: 31 (0.3 mg/kg SC once a day for 5 days on and 2 days off; 3 cycles); SEQ ID NO: 31 dose days indicated by dotted line or gridlines. The control group, which received only buffer, was dosed in the same manner as SEQ ID NO: 31 to establish the baseline tumor growth kinetics. […] Statistical analysis was based on Dunnett's test performed by using GraphPad (n=8, 7, 8, and 7; Control, aPD1, SEQ ID NO: 31, Combo (aPD1 and SEQ ID NO: 31) * P<0.05, **** P<0.0001 vs Control group.
Animal care and treatment: Female C57BL/6J mice (6 weeks-old) were purchased from Kyudo (Saga, Japan) and maintained under a 12-hour light/12-hour dark cycle with free access to water and standard mouse diet (CRF diet; Oriental Yeast Co., Ltd, Tokyo Japan). […] Tumor sizes were measured using calipers.

[2] = tested on: E0771 breast cancer cells; experiment: Orthotopic mouse model of bone metastasis using breast cancer E0771 cells (FIG. 10); format: in vivo, mice
Description: FIGS. 10A-10B. […] Error bars indicate standard error of the mean. […] Also illustrated in this diagram are the corresponding schedules for each treatment administered throughout this study. From tumor implantation, SEQ ID NO: 31 treated groups (2, 3, 6, and 7) were dosed SC (0.3 mg/kg/0.1 μmol/kg in buffer 15 mM succinate, 4% (w/v) D-mannitol, 10 mM hydoxypropyl-beta-cyclodextrin pH 4.4) on Days 5-9, 12-16, 19-23, and 26-29; aPD1 treated groups (3, 5, and 7) were dosed IP (5 mg/kg) on Days 5, 7, 12, and 14; and irradiated groups (4, 5, 6, and 7) received buffer and 5 Gy of X-ray radiation in three sets at the bone on Days 5, 8, and 12. Survival was observed until Day 33, following scheduled sacrifice of remaining mice. At this point, tumor sizes were measured using calipers. […] All groups were significant compared to the control group, so statistical analysis was based on Log-rank (Mantel-Cox) test against group 5 (radiation+aPD1) using GraphPad Prism.
Animal care and treatment: Female C57BL/6J mice (6 weeks-old) were purchased from Oriental Bioservice (Kobe, Japan) and maintained under a 12-hour light/12-hour dark cycle with free access to water and standard mouse diet (CRF diet; Oriental Yeast Co., Ltd, Tokyo Japan). Implantation and drug administration: Mice were orthotopically implanted with E0771 breast cancer cells (Cosmo Bio Tokyo, Japan; 250,000 cells/mouse in RPMI1640 medium (Fujifilm, Tokyo Japan)) in their left mammary gland and E0771 mouse breast cancer cells (500,000 cells/mouse in 50% Matrigel (Corning, NY, USA, #354234)) in their femur. Mice were then randomized into several treatment groups: 1) control (n=5), 2) SEQ ID NO: 31 (n=5), 3) SEQ ID NO: 31 and aPD1 (n=5), 4) radiation (n=6), 5) radiation and aPD1 (n=5), 6) SEQ ID NO: 31 and radiation (n=6), 7) SEQ ID NO: 31, radiation, and aPD1 (n=6). […] Survival was monitored up to Day 33 (FIG. 10B) post cell inoculation, and following scheduled sacrifice of the remaining mice, tumors were harvested, and sizes were measured using calipers. […]

Q: With `CCCCCCCCCCCCCCCC(=O)NCCOCCOCC(=O)NCCOCCOCC(=O)NCCOCCOCC(=O)N[C@@H](CN)C(=O)N[C@@H](CN)C(=O)NCC(=O)N[C@@H](CC(C)C)C(=O)N[C@@H](CO)C(=O)N[C@@H](CCCCN)C(=O)NCC(=O)N[C@H]1CSSC[C@@H](C(=O)O)NC(=O)CNC(=O)[C@H](CC(C)C)NC(=O)CNC(=O)[C@H](CO)NC(=O)[C@H](CCC(N)=O)NC(=O)[C@H](CO)NC(=O)CNC(=O)[C@H]([C@@H](C)CC)NC(=O)[C@H](CCCNC(=N)N)NC(=O)[C@H](CC(=O)O)NC(=O)[C@H](CC(C)C)NC(=O)[C@H](CCCCN)NC(=O)[C@H](CC(C)C)NC(=O)CNC(=O)[C@H](Cc2ccccc2)NC1=O` [SEQ ID NO: 31] ({Palmitoyl-AEEA-AEEA-AEEA}-[Dap][Dap]GLSKGCFGLKLDRIGSQSGLGC-OH; disulfide 8-24; C-terminus assumed) as the compound, how does the “Tumor volume compared to Control group and aPD1 group” value ([1]; combination with aPD1 5 mg/kg IP twice a week, 2 cycles) read?
A: significant decrease in tumor volume

Q: What about the “Tumor volume compared to Control group and aPD1 group” value ([1]; monotherapy, 0.3 mg/kg SC, 5 days on, 2 days off, 3 cycles) of the same compound?
A: significant decrease in tumor volume

Q: And the “Incidence of bone metastasis” value ([2]; addition of SEQ ID NO: 31 in all its respective groups)?
A: reduced the incidence of bone metastasis

Q: What about the “Mice tumor free in the bone” value ([2]; group 6: SEQ ID NO: 31 + radiation) of the same compound?
A: 5 out of 6

Q: What about the “Probability of survival vs group 5 (radiation+aPD1)” value ([2]; group 7: SEQ ID NO: 31 0.3 mg/kg SC + radiation + aPD1, to Day 33) of the same compound?
A: significant improvement in survival

Q: What about the “Mice tumor free in the bone” value ([2]; group 7: SEQ ID NO: 31 + radiation + aPD1) of the same compound?
A: 6 out of 6
